In ChEMBL document CHEMBL1157334, “Neuroprotective diterpenes from the fruiting body of Antrodia camphorata” (2006):

What was measured:
[1] = Neuroprotective effect against amyloid beta(25 to 35)-induced cell death in Harlan Sprague-Dawley rat pups cortical neurons assessed as cell viability at 1 uM treated 2 hrs before amyloid beta(25 to 35) treatment after 40 hrs by MTT assay; assay type: functional, Cortical neurone; conditions: for viability at 1 µM: Rattus norvegicus, Harlan Sprague-Dawley, Cortical neurone, read-out: Activity
[2] = Neuroprotective effect against amyloid beta(25 to 35)-induced cell death in Harlan Sprague-Dawley rat pups cortical neurons assessed as cell viability at 5 uM treated 2 hrs before amyloid beta(25 to 35) treatment after 40 hrs by MTT assay; assay type: functional, Cortical neurone; conditions: for viability at 5 µM: Rattus norvegicus, Harlan Sprague-Dawley, Cortical neurone, read-out: Activity
[3] = Neuroprotective effect against amyloid beta(25 to 35)-induced cell death in Harlan Sprague-Dawley rat pups cortical neurons assessed as cell viability at 10 uM treated 2 hrs before amyloid beta(25 to 35) treatment after 40 hrs by MTT assay; assay type: functional; conditions: Cortical neurone, read-out: Activity

Q: What does the source list for `C=C1CC[C@@H]2[C@](C)(CO)[C@H](O)CC[C@@]2(C)[C@@H]1/C=C/C1=CCOC1=O`?
A: viability at 1 µM [1]: 40.7%; viability at 5 µM [2]: 35.7%; viability at 10 µM [3]: 30.8%

Q: With `CC(=O)N[C@@H](CC(=O)O)C(=O)N[C@@H](CCC(=O)O)C(=O)N[C@H](C(=O)N[C@H](C=O)CC(=O)O)C(C)C` as the compound, how does the viability at 1 µM [1] read?
A: 35.8%

Q: What about the viability at 5 µM [2] of the same compound?
A: 30.2%

Q: And the viability at 10 µM [3]?
A: 24.5%

Q: Which results are given for `C=C1CC[C@H]2[C@@](C)(CO)CCC[C@]2(C)[C@H]1CCC1CCOC1=O` (some centres not stated)?
A: viability at 1 µM [1]: 34.4%; viability at 5 µM [2]: 25.3%; viability at 10 µM [3]: 28.1%

Q: For `C=C1CC[C@H]2[C@@](C)(CO)CCC[C@]2(C)[C@H]1CCC1=CCOC1=O`, which viability at 1 µM [1] is on record?
A: 41.2%

Q: What about the viability at 5 µM [2] of the same compound?
A: 34.8%

Q: What about the viability at 10 µM [3] of the same compound?
A: 28.9%

Q: Which Activity [1] does the source give for `C=C1CC[C@@H]2[C@](C)(CC[C@H](O)[C@]2(C)CO)[C@H]1/C=C/C1CCOC1=O` (stereo in doubt; 2) here?
A: 43.8%

Q: What about the Activity [2] of the same compound?
A: 34.9%

Q: What does the source list for `C=C1CC[C@@H]2[C@](C)(CC[C@H](O)[C@]2(C)CO)[C@H]1/C=C/C1CCOC1=O` (stereo in doubt; 3)?
A: viability at 1 µM [1]: 45.1%; viability at 5 µM [2]: 39.6%; viability at 10 µM [3]: 36.7%
